Patent US20240108595A1, “COMPOSITIONS AND METHODS FOR REVERSING AGE-ASSOCIATED DENDRITIC SPINE LOSS” (UNIVERSITY OF PITTSBURGH - OF THE COMMONWEALTH SYSTEM OF …, priority 2022, published 2024)

Experiments:
[1] = system: mouse cerebral cortex proteome; experiment: Signed Jaccard Index: overlap of amlexanox-induced protein perturbations in mice with effects of proteins on dendritic spines in humans; format: in vivo; conditions: amlexanox/control log2 protein abundances in mouse cerebral cortex vs effects of each protein on density of large dendritic spines in human cohort
Method: then the net effect of amlexanox treatment was evaluated on proteins which, in our human data, were associated with age related dendritic spine density reductions. The Signed Jaccard Index (SJI) was calculated to estimate the net overlap of amlexanox-induced protein perturbations in mice with the effects of proteins on dendritic spines in humans. The relative log2-transformed abundances for each protein in amlexanox/control groups were compared with the effects of each protein on the density of large dendritic spines extracted from the mediation analysis from our human cohort (described in Example 1) as follows:
An SJI of 0.013 compares favorably to the mean SJI reported for all drug-disease indication pairs (absolute value=0.004), indicating it is compatible with therapeutic activity. However, the SJI of 0.013 observed was lower in magnitude than the mean SJI reported for drug-disease pairs indicated specifically for CNS disorders (absolute value=0.033).

[2] = system: Fibroblast Growth Factor Receptor 2 (FGFR2); experiment: Cerebral cortex proteomics (LC-MS) after amlexanox treatment of mice; format: in vivo, mouse; conditions: 15-month-old WT mice, 25 mg/kg amlexanox for 5 days, right cerebral cortex; unadjusted p value of log2 fold change=0.0012
Method: Drug administration and animal studies. […] Treatment groups were balanced for sex.
Sample Preparation. Tissue homogenate was obtained using a Bead Mill Fast Prep-24 (MP Biomedicals). Tissue was transferred into a Lysing Matrix D tube with 750 μl of homogenization solution (5% SDS with MS-SAFE Protease and Phosphatase Inhibitor) and homogenized at 6 m/s for 40 s. Homogenate was centrifuged at 13.2×g for 10 min, the supernatant was transferred to a microcentrifuge tube and total protein was quantified with BCA.
10 μg of protein from each subject was digested with trypsin at a ratio of 1:20 using S-trap micro columns (Protifi) and desalted using Pierce Peptide Desalting Spin Columns (ThermoFisher Scientific). […]
Peptide Data Analysis. Raw data files were analyzed with Proteome Discoverer (ThermoFisher Scientific) and searched against the mouse SwissProt database using Sequest HT (missed cleavages=2; minimum peptide length=6; precursor mass tolerance=10 ppm; dynamic modifications: Oxidation/+15.995 Da, Acetyl/+42.011 Da, Met-loss/−131.040 Da, Met-loss+Acetyl/[…]; static modifications: Carbamidomethyl/+57.021 Da). […]
Statistical Analysis. […] Proteins with a combined Q-value=0.01 or greater, not quantified in 100% of samples or with CV>0.3 in pooled controls were filtered out. […]
2860 proteins were quantified in all mice. […] Other Fibroblast Growth Factor Receptors were not quantified in our assay.

[3] = mouse, in vivo, ip, 100 mg/kg
Method: Drug administration and animal studies. […] A modified tolerability score was used to estimate drug tolerability. […] Male and female 15-month-old WT mice were randomly allocated to receive either 25 mg/kg amlexanox (n=9) or equivalent volume vehicle (n=10) for 5 days. Treatment groups were balanced for sex. On day 5, mice were sacrificed, perfused with normal saline, and the right cerebral cortex was isolated and immediately frozen on dry ice for proteomics.

CC(C)c1ccc2oc3nc(N)c(C(=O)O)cc3c(=O)c2c1 [amlexanox, Amlexanox]
Signed Jaccard Index (SJI) [1]: 0.013
relative abundance of FGFR2 (amlexanox/control) [2]: 0.69
modified tolerability score [3]: elevated tolerability scores
